Entries after “also recorded” stand apart in the source; their conditions may differ.
How the values were obtained:
Assay type in all cases: cell-based, mouse
[1] = tested on: ENR+CD organoids (ISC to Paneth cell differentiation); experiment: Secondary (validation) screen: LYZ.S CCh-stimulated lysozyme secretion, 2.5-D 384-well ENR+CD organoids; conditions: for Dose.FC.LYZ.S: 6-day ENR+CD, vs ENR+CD+DMSO
[2] = tested on: ENR+CD organoids, stem II/III cells; experiment: Single-cell RNA-sequencing (Seq-Well) of organoid differentiation time course
Source text: For time points beyond 2 days, media was refreshed every other day. Following the Seq-Well protocol Applicants followed a standard library preparation, sequencing, and alignment process (see Methods).
Single-cell RNA-sequencing. A single-cell suspension was obtained from organoids cultured under conditions for the differentiation time course as described above. Applicants utilized the Seq-Well platform for massively parallel scRNA-seq to capture transcriptomes of single cells on barcoded mRNA capture beads. […] In brief, 20,000 cells from one organoid condition were loaded onto one array containing 100,000 barcoded mRNA capture beads. The loaded arrays containing cells and beads were then sealed using a polycarbonate membrane with a pore size of 0.01 μm, which allows for exchange of buffers but retains biological molecules confined within each microwell. Subsequent exchange of buffers allows for cell lysis, transcript hybridization, and bead recovery before performing reverse transcription en masse. Following reverse transcription and exonuclease treatment to remove excess primers, PCR amplification was carried out using KAPA HiFi PCR Mastermix with 2,000 beads per 50 μL reaction volume. Libraries were then pooled and purified using Agencourt AMPure XP beads (Beckman Coulter, A63881) by a 0.6×SPRI followed by a 0.8×SPRI and quantified using Qubit hsDNA Assay (Thermo Fisher). Libraries were constructed using the Nextera Tagmentation method on a total of 800 pg of pooled cDNA library per sample. […] Arrays were sequenced with an Illumina NovaSeq System. The read structure was paired end with Read 1 starting from a custom read 1 primer containing 20 bases with a 12 bp cell barcode and 8 bp unique molecular identifier (UMI) and Read 2 being 50 bases containing transcript information.
Single-cell RNA-sequencing computational pipelines and analysis.

[3] = tested on: 3D-cultured intestinal organoids (ENR or ENR+CD); experiment: Lysozyme secretion assay (3D culture), normalized to ATP
Description: Lysozyme assay (3D culture). ISC-enriched organoids cultured in 3D Matrigel with ENRCV media were passaged to 48-well plate in 3D Matrigel with ENRCV. At day zero, media were replaced to ENR or ENRCD with or without indicated compounds, and media were replaced every other day. At day six, cells were washed twice with basal media and treated with carbamylcholine chloride (Sigma, C4382) for 3 hours. Media were collected and lysozyme activity was measured by EnzChek Lysozyme Assay Kit (ThermoFisher, E22013).
Lysozyme secretion assay. ISC-enriched organoids in 3D Matrigel culture were passaged to a 48- or 96-well plate and cultured with ENR or ENR+CD media containing DMSO or each drug for 6 days. DMSO- or drug-containing media were changed every other day. On day 6, cells were washed with basal media twice and treated with basal media with or without 10 μM carbamoylcholine chloride for 3 h in a CO2 incubator at 37° C. A part of the conditioned media was collected and used for lysozyme assay (Thermo, E-22013) following the manufacturer's instruction. The fluorescence was measured using excitation/emission of 485/530 nm. CellTiter-Glo 3D Reagent (Promega, G9681) was added afterward, and the cell culture plate was incubated on an orbital shaker at RT for 30 min to induce cell lysis and to stabilize the luminescent signal. The solution was replaced to a 96-well white microplate, and luminescent signals were measured by a microplate reader (infinite M200, Tecan). The standard curve was prepared by diluting recombinant ATP (Promega, P1132). For both assays, a polynomial cubic curve was fitted to a set of standard data, and each sample value was calculated on the Microsoft Excel.

[4] = stem II/III, day 0.25-2, FDR<0.05

O=C(/C=C\n1cnc(-c2cc(C(F)(F)F)cc(C(F)(F)F)c2)n1)NNc1cnccn1 [KPT-330]
Dose.FC.LYZ.S ([1]; 0.02 uM): −0.004 log2 fold change | Dose.FC.LYZ.S ([1]; 0.04 uM): −0.077 log2 fold change | Dose.FC.LYZ.S ([1]; 0.08 uM): 0.134 log2 fold change | Dose.FC.LYZ.S ([1]; […]): 0.215 log2 fold change | increase in stimulated LYZ secretion (LYZ.S) relative to ENR+CD control ([1]; validated dose-treatments, mean fold change vs ENR+CD+DMSO): 50-75% | day 6 Paneth cell odds ratio (OR), treated vs control ([2]; 160 nM KPT-330 in ENR+CD): ~2 | organoid cell type composition over differentiation time course ([2]; 160 nM KPT-330 in ENR+CD vs ENR+CD, day 0.25-6): enhances stem conversion to mature cells; also recorded: relative depletion of stem I (and stem II & III) and enteroendocrine cells over time along with the corresponding enrichment of enterocytes and Paneth cells | Atf3 (ATF3) expression ([2]; KPT-330 treated vs control cells): upregulated | active / quiescent ISC signature in early stem cell populations ([2]; early stem II/III cells): induces a quiescent ISC signature and reduces an active ISC signature; also recorded: transition into quiescence | GSEA hallmark programs: mitogen-driven signaling (E2F, MYC targets, G2M checkpoint) [2, 4]: suppresses programs downstream of mitogen-driven signaling | GSEA hallmark programs: stress response (NFkB signaling, hypoxia, inflammatory response) [2, 4]: up-regulating programs broadly resembling a complex stress response | enrichment, treatment day 4-6 (by LYZ secretion assay) ([3]; 2-day treatment within 6-day ENR+CD differentiation, read at day 6): minorly enriched | most effective dose among tested concentrations (LYZ secretion) ([3]; 6 days ENR+CD, basal and Cch-stimulated): 160 nM | Paneth cell-specific activity (lysozyme assay) in conventional ENR culture ([3]; ENR media, 3-D, 6 days): enhancing Paneth cell-specific activity | Paneth cell activity (LYZ secretion, basal and Cch-stimulated), dose dependence ([3]; up to 160 nM, 6 days ENR+CD): enhanced Paneth cell activity in a dose-dependent manner

From patent US20220323406A1, “METHODS AND COMPOSITIONS FOR DIFFERENTIATING STEM CELLS” (Massachusetts Institute of Technology, priority 2019, published 2022)
